Data: patent US10807952B2 (Achillion Pharmaceuticals, Inc., priority 2015, dated 2020)
pIC50: −log10 of the molar value.

Target: Human Factor D (Homo sapiens (Human), UniProt P00746)
Experiment: Human Factor D assay (Z-L-Lys-SBzl / DTNB, absorbance at 405 nm)
Assay type: biochemical
Conditions: Table 3; Human Factor D 80 nM, assay of Example 13
Method: Human Factor D (purified from human serum, Complement Technology, Inc.) at 80 nM final concentration was incubated with test compound at various concentrations for 5 minutes at room temperature in 50 mM Tris, 1M NaCl, pH 7.5. A synthetic substrate Z-L-Lys-SBzl and DTNB (Ellman's reagent) were added to final concentrations of 100 μM each. […] IC50 values were calculated by nonlinear regression of complement Factor D reaction rates as a function of test compound concentration.

Human Factor D, sequence (P00746 26-253): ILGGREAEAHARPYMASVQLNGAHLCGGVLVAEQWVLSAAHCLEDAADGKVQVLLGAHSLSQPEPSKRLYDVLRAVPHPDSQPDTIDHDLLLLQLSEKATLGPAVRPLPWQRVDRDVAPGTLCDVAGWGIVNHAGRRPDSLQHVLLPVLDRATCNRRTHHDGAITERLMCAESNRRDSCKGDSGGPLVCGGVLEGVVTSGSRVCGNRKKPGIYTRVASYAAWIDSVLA

SMILES | pIC50
CC(=O)c1cn(CC(=O)N2C[C@H](F)C[C@H]2C(=O)Nc2cccc(-c3ccc4[nH]cnc4c3Cl)c2F)c2ccccc12 [Compound 2, (2S,4R)-1-(2-(3-acetyl-1H-indol-1-yl)acetyl)-N-(3-(4-chloro-1H-benzo[d]imidazol-5-yl)-2-fluorophenyl)-4-fluoropyrrolidine-2-carboxamide] | > 6.00
CC(=O)c1nn(CC(=O)N2C[C@H](F)C[C@H]2C(=O)Nc2cccc(-c3ccc4[nH]cnc4c3Cl)c2F)c2ccccc12 [Compound 3, (2S,4R)-1-(2-(3-acetyl-1H-indazol-1-yl)acetyl)-N-(3-(4-chloro-1H-benzo[d]imidazol-5-yl)-2-fluorophenyl)-4-fluoropyrrolidine-2-carboxamide] | > 6.00
CC(=O)c1nn(CC(=O)N2[C@@H]3C[C@@H]3C[C@H]2C(=O)Nc2cccc(-c3ccc4[nH]cnc4c3Cl)c2F)c2ccccc12 [Compound 5, (1R,3S,5R)-2-(2-(3-acetyl-1H-indazol-1-yl)acetyl)-N-(3-(4-chloro-1H-benzo[d]imidazol-5-yl)-2-fluorophenyl)-2-azabicyclo[3.1.0]hexane-3-carboxamide] | > 6.00
NC(=O)c1nn(CC(=O)N2C[C@H](F)C[C@H]2C(=O)Nc2cccc(-c3ccc4[nH]cnc4c3)c2F)c2ccccc12 [Compound 6, 1-(2-((2S,4R)-2-(3-(1H-benzo[d]imidazol-5-yl)-2-fluorophenyl-carbamoyl)-4-fluoropyrrolidin-1-yl)-2-oxoethyl)-1H-indazole-3-carboxamide] | > 6.00
CC(=O)c1cn(CC(=O)N[C@H](C(=O)Nc2cccc(-c3ccccc3Cl)c2F)[C@@H](C)O)c2ccccc12 [Compound 7, (2S,3R)-2-(2-(3-Acetyl-1H-indol-1-yl)acetamido)-N-(2′-chloro-2-fluorobiphenyl-3-yl)-3-hydroxybutanamide] | > 6.00
CO/N=C(\C)c1ccc(Cl)c(-c2cccc(NC(=O)[C@@H]3C[C@@H](F)CN3C(=O)Cn3nc(C(N)=O)c4ccccc43)c2F)c1 [Compound 8, 1-(2-((2S,4R)-2-((2′-Chloro-2-fluoro-5′-((E)-1-(methoxyimino)ethyl)-[1,1′-biphenyl]-3-yl)carbamoyl)-4-fluoropyrrolidin-1-yl)-2-oxoethyl)-1H-indazole-3-carboxamide] | > 6.00
NC(=O)c1nn(CC(=O)N2C[C@H](F)C[C@H]2C(=O)Nc2cccc(-c3ccc4[nH]c(C(F)(F)F)nc4c3Cl)c2F)c2ccccc12 [Compound 9, 1-(2-((2S,4R)-2-(3-(4-chloro-2-(trifluoromethyl)-1H-benzo[d]imidazol-5-yl)-2-fluorophenyl-carbamoyl)-4-fluoropyrrolidin-1-yl)-2-oxoethyl)-1H-indazole-3-carboxamide] | > 6.00
Cc1nc2cc(-c3cccc(NC(=O)[C@@H]4C[C@@H](F)CN4C(=O)Cn4nc(C(N)=O)c5ccccc54)c3F)ccc2[nH]1 [Compound 10] | > 6.00
NC(=O)c1nn(CC(=O)N2C[C@H](F)C[C@H]2C(=O)Nc2cccc(-c3ccc4[nH]c(=O)[nH]c4c3Cl)c2F)c2ccccc12 [Compound 11, 1-(2-((2S,4R)-2-((3-(4-Chloro-2-oxo-2,3-dihydro-1H-benzo[d]imidazol-5-yl)-2-fluorophenyl)carbamoyl)-4-fluoropyrrolidin-1-yl)-2-oxoethyl)-1H-indazole-3-carboxamide] | > 6.00
Cc1nc2c(Cl)c(-c3cccc(NC(=O)[C@@H]4C[C@@H](F)CN4C(=O)Cn4nc(C(N)=O)c5ccccc54)c3F)ccc2[nH]1 [Compound 12, 1-(2-((2S,4R)-2-(3-(4-chloro-2-methyl-1H-benzo[d]imidazol-5-yl)-2-fluorophenyl-carbamoyl)-4-fluoropyrrolidin-1-yl)-2-oxoethyl)-1H-indazole-3-carboxamide] | > 6.00
N#Cc1n[nH]c2ccc(-c3cccc(NC(=O)[C@@H]4C[C@@H](F)CN4C(=O)Cn4nc(C(N)=O)c5ccccc54)c3F)cc12 [Compound 13, 1-(2-((2S,4R)-2-(3-(3-cyano-1H-indazol-5-yl)-2-fluorophenyl-carbamoyl)-4-fluoropyrrolidin-1-yl)-2-oxoethyl)-1H-indazole-3-carboxamide] | > 6.00
C[C@H](O)c1nc2c(Cl)c(-c3cccc(NC(=O)[C@@H]4C[C@@H](F)CN4C(=O)Cn4nc(C(N)=O)c5ccccc54)c3F)ccc2[nH]1 [Compound 14, 1-(2-((2S,4R)-2-((3-(7-Chloro-2-((S)-1-hydroxyethyl)-1H-benzo[d]imidazol-6-yl)-2-fluorophenyl)carbamoyl)-4-fluoropyrrolidin-1-yl)-2-oxoethyl)-1H-indazole-3-carboxamide] | > 6.00
CC(=O)c1cn(CC(=O)N(C)[C@H](C(=O)Nc2cccc(-c3ccccc3Cl)c2F)[C@@H](C)O)c2ccccc12 [Compound 15, (2S,3R)-2-(2-(3-acetyl-1H-indol-1-yl)-N-methylacetamido)-N-(2′-chloro-2-fluorobiphenyl-3-yl)-3-hydroxybutanamide] | 5.00 to 6.00
CC(=O)c1cn(CC(=O)N[C@H](C(=O)Nc2cccc(Br)n2)[C@@H](C)O)c2ccccc12 [Compound 16, (2S,3R)-2-(2-(3-acetyl-1H-indol-1-yl)acetamido)-N-(6-bromopyridin-2-yl)-3-hydroxybutanamide] | 5.00 to 6.00
NC(=O)c1nn(CC(=O)N2C[C@H](F)C[C@H]2C(=O)Nc2cccc(-c3ccc4[nH]ncc4c3Cl)c2F)c2ccccc12 [Compound 17, 1-(2-((2S,4R)-2-(3-(4-chloro-1H-indazol-5-yl)-2-fluorophenyl-carbamoyl)-4-fluoropyrrolidin-1-yl)-2-oxoethyl)-1H-indazole-3-carboxamide] | > 6.00
CC(=O)c1nc2ccc(-c3cccc(NC(=O)[C@@H]4C[C@@H](F)CN4C(=O)Cn4nc(C(N)=O)c5ccccc54)c3F)c(Cl)c2[nH]1 [Compound 18, 1-(2-((2S,4R)-2-(3-(2-acetyl-7-chloro-1H-benzo[d]imidazol-6-yl)-2-fluorophenyl-carbamoyl)-4-fluoropyrrolidin-1-yl)-2-oxoethyl)-1H-indazole-3-carboxamide] | > 6.00
NC(=O)c1nn(CC(=O)N2C[C@H](F)C[C@H]2C(=O)Nc2cccc(-c3ccccc3Cl)c2F)c2cc(Cn3cc(C4CC4)nn3)sc12 [Compound 19, 1-(2-((2S,4R)-2-((2′-Chloro-2-fluoro-[1,1′-biphenyl]-3-yl)carbamoyl)-4-fluoropyrrolidin-1-yl)-2-oxoethyl)-5-((4-cyclopropyl-1H-1,2,3-triazol-1-yl)methyl)-1H-thieno[3,2-c]pyrazole-3-carboxamide] | > 6.00
Cn1cnc2c(Cl)c(-c3cccc(NC(=O)[C@@H]4C[C@@H](F)CN4C(=O)Cn4nc(C(N)=O)c5ccccc54)c3F)ccc21 [Compound 20, 1-(2-((2S,4R)-2-(3-(4-chloro-1-methyl-1H-benzo[d]imidazol-5-yl)-2-fluorophenyl-carbamoyl)-4-fluoropyrrolidin-1-yl)-2-oxoethyl)-1H-indazole-3-carboxamide] | > 6.00
NC(=O)c1cccc(CC(=O)N2C[C@H](F)C[C@H]2C(=O)Nc2cccc(-c3ccccc3Cl)c2F)c1 [Compound 21, (2S,4R)-1-(2-(3-carbamoylphenyl)acetyl)-N-(2′-chloro-2-fluorobiphenyl-3-yl)-4-fluoropyrrolidine-2-carboxamide] | > 6.00
NC(=O)c1cc(CC(=O)N2C[C@H](F)C[C@H]2C(=O)Nc2cccc(-c3ccccc3Cl)c2F)ccc1Cl [Compound 22, (2S,4R)-1-(2-(3-carbamoyl-4-chlorophenyl)acetyl)-N-(2′-chloro-2-fluorobiphenyl-3-yl)-4-fluoropyrrolidine-2-carboxamide] | 5.00 to 6.00
N#Cc1cc(CC(=O)N2C[C@H](F)C[C@H]2C(=O)Nc2cccc(-c3ccccc3Cl)c2F)ccc1Cl [Compound 23, (2S,4R)-N-(2′-chloro-2-fluorobiphenyl-3-yl)-1-(2-(4-chloro-3-cyanophenyl)acetyl)-4-fluoropyrrolidine-2-carboxamide] | 5.00 to 6.00
N#Cc1cccc(CC(=O)N2C[C@H](F)C[C@H]2C(=O)Nc2cccc(-c3ccccc3Cl)c2F)c1 [Compound 24, (2S,4R)-N-(2′-chloro-2-fluorobiphenyl-3-yl)-1-(2-(3-cyanophenyl)acetyl)-4-fluoropyrrolidine-2-carboxamide] | > 6.00
NC(=O)c1nn(CC(=O)N2C[C@H](F)C[C@H]2C(=O)Nc2cccc(-c3ccc4cc[nH]c4c3)c2F)c2ccccc12 [Compound 25, 1-(2-((2S,4R)-4-fluoro-2-(2-fluoro-3-(1H-indol-6-yl)phenylcarbamoyl)pyrrolidin-1-yl)-2-oxoethyl)-1H-indazole-3-carboxamide] | > 6.00
NC(=O)c1nn(CC(=O)N2C[C@H](F)C[C@H]2C(=O)Nc2cccc(-c3ccc4nc(N)[nH]c4c3Cl)c2F)c2ccccc12 [Compound 26, 1-(2-((2S,4R)-2-(3-(2-amino-7-chloro-1H-benzo[d]imidazol-6-yl)-2-fluorophenyl-carbamoyl)-4-fluoropyrrolidin-1-yl)-2-oxoethyl)-1H-indazole-3-carboxamide] | > 6.00
NC(=O)c1nn(CC(=O)N2C[C@H](F)C[C@H]2C(=O)Nc2cccc(-c3ccc4cn[nH]c4c3)c2F)c2ccccc12 [Compound 28, 1-(2-((2S,4R)-4-fluoro-2-(2-fluoro-3-(1H-indazol-6-yl)phenylcarbamoyl)pyrrolidin-1-yl)-2-oxoethyl)-1H-indazole-3-carboxamide] | > 6.00
NC(=O)c1nn(CC(=O)N2C[C@H](F)C[C@H]2C(=O)Nc2cccc(Br)n2)c2cc(Cn3cc(C4CC4)nn3)sc12 [Compound 29, 1-(2-((2S,4R)-2-(6-bromopyridin-2-ylcarbamoyl)-4-fluoropyrrolidin-1-yl)-2-oxoethyl)-5-((4-cyclopropyl-1H-1,2,3-triazol-1-yl)methyl)-1H-thieno[3,2-c]pyrazole-3-carboxamide] | > 6.00
